Numbers after ± are expanded uncertainties.
Test: molar heat capacity at constant pressure
Settings: 101.33 kPa

Clc1ccc(Cl)cc1 [1,4-dichlorobenzene]
Settings	molar heat capacity at constant pressure [J/K/mol]
5.11 K, Crystal 3	0.29 ± 0.03
6.43 K, Crystal 3	0.42 ± 0.03
7.21 K, Crystal 3	0.83 ± 0.04
7.89 K, Crystal 3	1.18 ± 0.04
9.58 K, Crystal 3	2.1 ± 0.05
10 K, Crystal 3	2.33 ± 0.06
11.66 K, Crystal 3	3.22 ± 0.07
13.08 K, Crystal 3	4.5 ± 0.09
14.5 K, Crystal 3	6.12 ± 0.11
15 K, Crystal 3	6.7 ± 0.11
15.94 K, Crystal 3	7.81 ± 0.12
18.49 K, Crystal 3	10.86 ± 0.15
19 K, Crystal 3	11.19 ± 0.15
20 K, Crystal 3	12.69 ± 0.17
20.21 K, Crystal 3	12.96 ± 0.17
21.65 K, Crystal 3	14.62 ± 0.17
22.92 K, Crystal 3	16.12 ± 0.18
24.05 K, Crystal 3	17.45 ± 0.19
25 K, Crystal 3	18.52 ± 0.19
25.09 K, Crystal 3	18.62 ± 0.19
26.05 K, Crystal 3	19.66 ± 0.19
28.53 K, Crystal 3	21.78 ± 0.18
30 K, Crystal 3	23.27 ± 0.17
32.77 K, Crystal 3	26.1 ± 0.19
34.99 K, Crystal 3	28.16 ± 0.19
36.99 K, Crystal 3	29.91 ± 0.2
38.82 K, Crystal 3	31.33 ± 0.21
40 K, Crystal 3	32.27 ± 0.21
42.09 K, Crystal 3	33.94 ± 0.22
44.35 K, Crystal 3	35.66 ± 0.22
46.46 K, Crystal 3	37.19 ± 0.23
48.44 K, Crystal 3	38.2 ± 0.23
50 K, Crystal 3	39.36 ± 0.24
52.09 K, Crystal 3	40.68 ± 0.24
53.8 K, Crystal 3	41.66 ± 0.25
55.44 K, Crystal 3	42.56 ± 0.25
57.02 K, Crystal 3	43.48 ± 0.25
58.55 K, Crystal 3	44.32 ± 0.26
60 K, Crystal 3	45.13 ± 0.26
60.03 K, Crystal 3	45.14 ± 0.26
63.79 K, Crystal 3	47.24 ± 0.27
66.94 K, Crystal 3	48.83 ± 0.28
69.94 K, Crystal 3	50.35 ± 0.28
70 K, Crystal 3	50.38 ± 0.28
72.81 K, Crystal 3	51.62 ± 0.29
80 K, Crystal 3	55.34 ± 0.3
82.41 K, Crystal 3	56.53 ± 0.31
85.29 K, Crystal 3	57.82 ± 0.31
88.14 K, Crystal 3	59.02 ± 0.32
90 K, Crystal 3	59.86 ± 0.52
91.01 K, Crystal 3	60.3 ± 0.52
93.9 K, Crystal 3	61.52 ± 0.52
96.8 K, Crystal 3	62.72 ± 0.53
99.71 K, Crystal 3	63.94 ± 0.53
100 K, Crystal 3	64.06 ± 0.53
102.62 K, Crystal 3	65.39 ± 0.53
103.2 K, Crystal 3	65.58 ± 0.53
105.55 K, Crystal 3	66.59 ± 0.53
107.33 K, Crystal 3	67.31 ± 0.53
108.49 K, Crystal 3	67.79 ± 0.54
110 K, Crystal 3	68.42 ± 0.54
111.35 K, Crystal 3	68.99 ± 0.54
111.43 K, Crystal 3	69.01 ± 0.54
114.39 K, Crystal 3	70.21 ± 0.54
115.28 K, Crystal 3	70.59 ± 0.54
117.35 K, Crystal 3	71.41 ± 0.54
119.12 K, Crystal 3	72.17 ± 0.54
120 K, Crystal 3	72.49 ± 0.55
120.32 K, Crystal 3	72.62 ± 0.55
122.89 K, Crystal 3	73.69 ± 0.55
123.3 K, Crystal 3	73.82 ± 0.55
126.28 K, Crystal 3	75.05 ± 0.55
126.6 K, Crystal 3	75.16 ± 0.55
129.27 K, Crystal 3	76.26 ± 0.55
130 K, Crystal 3	76.54 ± 0.56
130.24 K, Crystal 3	76.63 ± 0.55
132.26 K, Crystal 3	77.49 ± 0.56
133.83 K, Crystal 3	78.06 ± 0.56
135.26 K, Crystal 3	78.7 ± 0.56
137.36 K, Crystal 3	79.47 ± 0.56
138.27 K, Crystal 3	79.99 ± 0.56
140 K, Crystal 3	80.56 ± 0.56
140.85 K, Crystal 3	80.87 ± 0.56
141.27 K, Crystal 3	81.11 ± 0.56
144.27 K, Crystal 3	82.33 ± 0.56
147.28 K, Crystal 3	83.54 ± 0.57
147.69 K, Crystal 3	83.58 ± 0.57
150 K, Crystal 3	84.62 ± 0.56
150.29 K, Crystal 3	84.72 ± 0.57
151.05 K, Crystal 3	84.88 ± 0.57
153.31 K, Crystal 3	85.92 ± 0.57
156.33 K, Crystal 3	87.11 ± 0.57
159.35 K, Crystal 3	88.32 ± 0.58
160 K, Crystal 3	88.57 ± 0.57
162.38 K, Crystal 3	89.5 ± 0.58
165.4 K, Crystal 3	90.68 ± 0.58
168.43 K, Crystal 3	91.85 ± 0.58
170 K, Crystal 3	92.45 ± 0.58
171.47 K, Crystal 3	93.01 ± 0.59
177.53 K, Crystal 3	95.43 ± 0.59
180 K, Crystal 3	96.42 ± 0.59
180.53 K, Crystal 3	96.63 ± 0.59
183.51 K, Crystal 3	97.84 ± 0.6
186.47 K, Crystal 3	98.95 ± 0.6
188.91 K, Crystal 3	99.81 ± 0.6
189.41 K, Crystal 3	100.08 ± 0.6
190 K, Crystal 3	100.33 ± 0.6
191.9 K, Crystal 3	101.04 ± 0.6
192.33 K, Crystal 3	101.32 ± 0.6
194.87 K, Crystal 3	102.23 ± 0.6
195.23 K, Crystal 3	102.39 ± 0.6
197.82 K, Crystal 3	103.42 ± 0.61
198.11 K, Crystal 3	103.53 ± 0.61
200 K, Crystal 3	104.28 ± 0.61
200.75 K, Crystal 3	104.57 ± 0.61
200.98 K, Crystal 3	104.65 ± 0.61
203.66 K, Crystal 3	105.76 ± 0.61
206.55 K, Crystal 3	106.91 ± 0.61
209.43 K, Crystal 3	108.06 ± 0.62
210 K, Crystal 3	108.29 ± 0.61
212.28 K, Crystal 3	109.21 ± 0.62
215.03 K, Crystal 3	110.08 ± 0.62
215.12 K, Crystal 3	110.42 ± 0.62
217.8 K, Crystal 3	111.29 ± 0.62
217.94 K, Crystal 3	111.43 ± 0.62
220 K, Crystal 3	112.15 ± 0.62
220.54 K, Crystal 3	112.37 ± 0.62
220.75 K, Crystal 3	112.46 ± 0.62
223.28 K, Crystal 3	113.45 ± 0.63
225.99 K, Crystal 3	114.54 ± 0.63
226.32 K, Crystal 3	114.68 ± 0.63
228.7 K, Crystal 3	115.59 ± 0.63
229.08 K, Crystal 3	115.81 ± 0.63
230 K, Crystal 3	116.16 ± 0.63
231.39 K, Crystal 3	116.65 ± 0.63
231.82 K, Crystal 3	116.88 ± 0.63
234.07 K, Crystal 3	117.7 ± 0.64
234.55 K, Crystal 3	117.96 ± 0.64
236.73 K, Crystal 3	118.76 ± 0.64
237.27 K, Crystal 3	119.01 ± 0.64
239.38 K, Crystal 3	119.79 ± 0.64
239.97 K, Crystal 3	119.98 ± 0.64
240 K, Crystal 3	119.99 ± 0.64
242.02 K, Crystal 3	120.79 ± 0.64
242.66 K, Crystal 3	121.05 ± 0.64
244.65 K, Crystal 3	121.76 ± 0.64
245.34 K, Crystal 3	122.11 ± 0.64
247.26 K, Crystal 3	122.73 ± 0.65
248 K, Crystal 3	123.17 ± 0.65
249.87 K, Crystal 3	123.71 ± 0.65
250 K, Crystal 3	123.77 ± 0.65
250.66 K, Crystal 3	124.06 ± 0.65
252.46 K, Crystal 3	124.73 ± 0.65
253.3 K, Crystal 3	125.12 ± 0.65
255.04 K, Crystal 3	125.74 ± 0.65
257.61 K, Crystal 3	126.76 ± 0.65
260 K, Crystal 3	127.72 ± 0.66
260.16 K, Crystal 3	127.77 ± 0.66
262.71 K, Crystal 3	128.79 ± 0.66
265.24 K, Crystal 3	129.78 ± 0.66
267.76 K, Crystal 3	130.84 ± 0.66
270 K, Crystal 3	131.65 ± 0.67
270.28 K, Crystal 3	131.78 ± 0.66
272.78 K, Crystal 3	132.68 ± 0.67
275 K, Crystal 2	134.45 ± 0.67
275 K, Crystal 3	133.61 ± 0.67
280 K, Crystal 2	135.94 ± 0.67
281.42 K, Crystal 2	136.31 ± 0.67
283.88 K, Crystal 2	137.36 ± 0.67
286.32 K, Crystal 2	138.34 ± 0.68
290 K, Crystal 2	139.78 ± 0.68
292.1 K, Crystal 2	140.78 ± 0.68
293.87 K, Crystal 2	141.42 ± 0.68
296.42 K, Crystal 2	142.86 ± 0.69
298.15 K, Crystal 2	143.78 ± 0.69
298.96 K, Crystal 2	144.24 ± 0.69
300 K, Crystal 2	144.8 ± 0.69
301.51 K, Crystal 2	145.69 ± 0.69
306 K, Crystal 1	147.86 ± 0.7
306 K, Crystal 2	147.75 ± 0.7
308.59 K, Crystal 1	148.61 ± 0.7
310 K, Crystal 1	149.45 ± 0.7
311.33 K, Crystal 1	150.45 ± 0.7
314.11 K, Crystal 1	151.51 ± 0.7
316.65 K, Crystal 1	152.8 ± 0.71
319.2 K, Crystal 1	154.18 ± 0.71
320 K, Crystal 1	154.72 ± 0.71
321.74 K, Crystal 1	155.8 ± 0.71
326.24 K, Crystal 1	158 ± 0.71
326.24 K, Liquid	175.98 ± 0.75
330 K, Liquid	176.87 ± 0.76
331.52 K, Liquid	177.33 ± 0.75
332.72 K, Liquid	177.51 ± 0.76
333.8 K, Liquid	177.86 ± 0.76
335.4 K, Liquid	178.04 ± 0.76
336.04 K, Liquid	178.35 ± 0.76
337.95 K, Liquid	178.72 ± 0.76
338.28 K, Liquid	178.83 ± 0.76
340 K, Liquid	179.23 ± 0.76
340.5 K, Liquid	179.25 ± 0.76
340.53 K, Liquid	179.38 ± 0.76
342.77 K, Liquid	179.91 ± 0.76
343.05 K, Liquid	179.96 ± 0.76
345.6 K, Liquid	180.47 ± 0.76
348.14 K, Liquid	181.07 ± 0.76
350 K, Liquid	181.59 ± 0.77
350.69 K, Liquid	181.7 ± 0.76
353.24 K, Liquid	182.31 ± 0.76
355.79 K, Liquid	183.1 ± 0.77
358.34 K, Liquid	183.5 ± 0.77
360 K, Liquid	183.95 ± 0.77
360.89 K, Liquid	184.17 ± 0.77
363.44 K, Liquid	184.8 ± 0.77
368.54 K, Liquid	185.95 ± 0.77
370 K, Liquid	186.3 ± 0.77
371.09 K, Liquid	186.69 ± 0.77
373.64 K, Liquid	187.14 ± 0.77
376.2 K, Liquid	187.74 ± 0.78
380 K, Liquid	188.66 ± 0.77
